{"source": "ChEMBL document CHEMBL4715742", "about": "“Design, synthesis and cytotoxic activities of novel 2,5-diketopiperazine derivatives” (Eur J Med Chem, 2016)", "key": {"U-937 [1]": {"tested_on": "U-937", "experiment": "Induction of apoptosis in human U-937 cells assessed as necrotic cells at 1 uM measured after 24 hrs by annexinV/FITC-propidium iodide staining based flow cytometry (reference value: 1.12 to 1.48 %)", "type": "functional"}, "U-937 [2]": {"tested_on": "U-937", "experiment": "Induction of apoptosis in human U-937 cells assessed as necrotic cells at 2 uM measured after 24 hrs by annexinV/FITC-propidium iodide staining based flow cytometry (reference value: 1.12 to 1.48 %)", "type": "functional"}, "U-937 [3]": {"tested_on": "U-937", "experiment": "Induction of apoptosis in human U-937 cells assessed as early apoptotic cells at 2 uM measured after 24 hrs by annexinV/FITC-propidium iodide staining based flow cytometry (reference value: 1.28 to 1.68 %)", "type": "functional"}, "K562 [4]": {"tested_on": "K562", "experiment": "Cytotoxicity against human K562 cells assessed as cell viability at 0.37 uM measured after 24 hrs by CCK8 assay relative to control", "type": "functional", "details": "read-out: Activity"}, "A549": {"tested_on": "A549", "experiment": "Cytotoxicity against human A549 cells assessed as reduction in cell viability measured after 72 hrs by CCK8 assay", "type": "functional, cell-based", "details": "Homo sapiens, A549, 72 h; read-out: IC50"}, "U-937 [5]": {"tested_on": "U-937", "experiment": "Induction of apoptosis in human U-937 cells assessed as late apoptotic cells at 1 uM measured after 24 hrs by annexinV/FITC-propidium iodide staining based flow cytometry (reference value: 2.18 to 2.22 %)", "type": "functional"}, "U-937 [6]": {"tested_on": "U-937", "experiment": "Induction of apoptosis in human U-937 cells assessed as viable cells at 0.5 uM measured after 48 hrs by annexinV/FITC-propidium iodide staining based flow cytometry (reference value: 93.7 to 94.2 %)", "type": "functional", "details": "read-out: Activity"}, "K562 [7]": {"tested_on": "K562", "experiment": "Cytotoxicity against human K562 cells assessed as cell viability at 1.1 uM measured after 24 hrs by CCK8 assay relative to control", "type": "functional", "details": "read-out: Activity"}, "U-937 [8]": {"tested_on": "U-937", "experiment": "Cytotoxicity against human U-937 cells assessed as cell viability at 0.37 uM measured after 72 hrs by CCK8 assay relative to control", "type": "functional", "details": "read-out: Activity"}, "K562 [9]": {"tested_on": "K562", "experiment": "Cytotoxicity against human K562 cells assessed as reduction in cell viability measured after 24 to 72 hrs by CCK8 assay", "type": "functional, cell-based", "details": "dose 0.37-3.3 µM, time 24-72 hrs"}, "K562 [10]": {"tested_on": "K562", "experiment": "Cytotoxicity against human K562 cells assessed as reduction in cell viability measured after 72 hrs by CCK8 assay", "type": "functional, cell-based", "details": "Homo sapiens, K562, 72 h; read-out: IC50"}, "K562 [11]": {"tested_on": "K562", "experiment": "Cytotoxicity against human K562 cells assessed as cell viability at 0.37 uM measured after 72 hrs by CCK8 assay relative to control", "type": "functional", "details": "read-out: Activity"}, "U-937 [12]": {"tested_on": "U-937", "experiment": "Induction of apoptosis in human U-937 cells assessed as late apoptotic cells at 1 uM measured after 48 hrs by annexinV/FITC-propidium iodide staining based flow cytometry (reference value: 3.27 to 3.41 %)", "type": "functional"}, "U-937 [13]": {"tested_on": "U-937", "experiment": "Induction of apoptosis in human U-937 cells assessed as necrotic cells at 1 uM measured after 48 hrs by annexinV/FITC-propidium iodide staining based flow cytometry (reference value: 0.794 to 0.955 %)", "type": "functional"}, "MCF7": {"tested_on": "MCF7", "experiment": "Cytotoxicity against human MCF7 cells assessed as reduction in cell viability measured after 72 hrs by CCK8 assay", "type": "functional, cell-based", "details": "Homo sapiens, MCF7, 72 h; read-out: IC50"}, "U-937 [14]": {"tested_on": "U-937", "experiment": "Induction of apoptosis in human U-937 cells assessed as viable cells at 1 uM measured after 48 hrs by annexinV/FITC-propidium iodide staining based flow cytometry (reference value: 93.7 to 94.2 %)", "type": "functional", "details": "read-out: Activity"}, "U-937 [15]": {"tested_on": "U-937", "experiment": "Cytotoxicity against human U-937 cells assessed as reduction in cell viability measured after 72 hrs by CCK8 assay", "type": "functional, cell-based", "details": "Homo sapiens, U-937, 72 h; read-out: IC50"}, "U-937 [16]": {"tested_on": "U-937", "experiment": "Induction of apoptosis in human U-937 cells assessed as apoptotic ratio at 1 uM measured after 48 hrs by annexinV/FITC-propidium iodide staining based flow cytometry (reference value: 5.2 +/- 0.2 %)", "type": "functional"}, "U-937 [17]": {"tested_on": "U-937", "experiment": "Induction of apoptosis in human U-937 cells assessed as apoptotic ratio at 0.5 uM measured after 24 hrs by annexinV/FITC-propidium iodide staining based flow cytometry (reference value: 3.7 +/- 0.3 %)", "type": "functional"}, "U-937 [18]": {"tested_on": "U-937", "experiment": "Cytotoxicity against human U-937 cells assessed as cell viability at 1.1 uM measured after 24 hrs by CCK8 assay relative to control", "type": "functional", "details": "read-out: Activity"}, "U-937 [19]": {"tested_on": "U-937", "experiment": "Induction of apoptosis in human U-937 cells assessed as late apoptotic cells at 0.5 uM measured after 24 hrs by annexinV/FITC-propidium iodide staining based flow cytometry (reference value: 2.18 to 2.22 %)", "type": "functional"}, "K562 [20]": {"tested_on": "K562", "experiment": "Cytotoxicity against human K562 cells assessed as cell viability at 3.3 uM measured after 24 hrs by CCK8 assay relative to control", "type": "functional", "details": "read-out: Activity"}, "U-937 [21]": {"tested_on": "U-937", "experiment": "Induction of apoptosis in human U-937 cells assessed as necrotic cells at 2 uM measured after 48 hrs by annexinV/FITC-propidium iodide staining based flow cytometry (reference value: 0.794 to 0.955 %)", "type": "functional"}, "K562 [22]": {"tested_on": "K562", "experiment": "Cytotoxicity against human K562 cells assessed as cell viability at 3.3 uM measured after 72 hrs by CCK8 assay relative to control", "type": "functional", "details": "read-out: Activity"}, "U-937 [23]": {"tested_on": "U-937", "experiment": "Induction of apoptosis in human U-937 cells assessed as late apoptotic cells at 0.5 uM measured after 48 hrs by annexinV/FITC-propidium iodide staining based flow cytometry (reference value: 3.27 to 3.41 %)", "type": "functional"}, "U-937 [24]": {"tested_on": "U-937", "experiment": "Cytotoxicity against human U-937 cells assessed as reduction in cell viability at 0.37 to 3.3 uM by CCK8 assay", "type": "functional, cell-based", "details": "dose 0.37-3.3 µM, TDE = time-dependent effect"}, "K562 [25]": {"tested_on": "K562", "experiment": "Cytotoxicity against human K562 cells assessed as reduction in cell viability at 0.37 to 3.3 uM by CCK8 assay", "type": "functional, cell-based", "details": "dose 0.37-3.3 µM, time 24-72 hrs, TDE = time-dependent effect"}, "U-937 [26]": {"tested_on": "U-937", "experiment": "Induction of apoptosis in human U-937 cells assessed as early apoptotic cells at 1 uM measured after 24 hrs by annexinV/FITC-propidium iodide staining based flow cytometry (reference value: 1.28 to 1.68 %)", "type": "functional"}, "U-937 [27]": {"tested_on": "U-937", "experiment": "Cytotoxicity against human U-937 cells assessed as cell viability at 3.3 uM measured after 48 hrs by CCK8 assay relative to control", "type": "functional", "details": "read-out: Activity"}, "U-937 [28]": {"tested_on": "U-937", "experiment": "Induction of apoptosis in human U-937 cells assessed as viable cells at 2 uM measured after 48 hrs by annexinV/FITC-propidium iodide staining based flow cytometry (reference value: 93.7 to 94.2 %)", "type": "functional", "details": "read-out: Activity"}, "K562 [29]": {"tested_on": "K562", "experiment": "Cytotoxicity against human K562 cells assessed as cell viability at 1.1 uM measured after 72 hrs by CCK8 assay relative to control", "type": "functional", "details": "read-out: Activity"}, "U-937 [30]": {"tested_on": "U-937", "experiment": "Induction of apoptosis in human U-937 cells assessed as viable cells at 2 uM measured after 24 hrs by annexinV/FITC-propidium iodide staining based flow cytometry (reference value: 95 to 95.1 %)", "type": "functional", "details": "read-out: Activity"}, "U-937 [31]": {"tested_on": "U-937", "experiment": "Induction of apoptosis in human U-937 cells assessed as early apoptotic cells at 0.5 uM measured after 24 hrs by annexinV/FITC-propidium iodide staining based flow cytometry (reference value: 1.28 to 1.68 %)", "type": "functional"}, "U-937 [32]": {"tested_on": "U-937", "experiment": "Cytotoxicity against human U-937 cells assessed as cell viability at 1.1 uM measured after 72 hrs by CCK8 assay relative to control", "type": "functional", "details": "read-out: Activity"}, "U-937 [33]": {"tested_on": "U-937", "experiment": "Induction of apoptosis in human U-937 cells assessed as apoptotic ratio at 1 uM measured after 24 hrs by annexinV/FITC-propidium iodide staining based flow cytometry (reference value: 3.7 +/- 0.3 %)", "type": "functional"}}, "data": [{"smiles": "C=CCn1c(=O)/c(=C/CCCC)[nH]c(=O)/c1=C/c1ccc(OC)cc1", "values": [{"measurement": "Activity", "setting": "U-937 [1]", "result": 1.13, "unit": "%"}, {"measurement": "Activity", "setting": "U-937 [2]", "result": 1.22, "unit": "%"}, {"measurement": "Activity", "setting": "U-937 [3]", "result": 9.66, "unit": "%"}, {"measurement": "viability at 0.37 µM", "setting": "K562 [4]", "result": 87.8, "unit": "%"}, {"measurement": "IC50", "setting": "A549", "result": 1700, "unit": "nM"}, {"measurement": "Activity", "setting": "U-937 [5]", "result": 8.23, "unit": "%"}, {"measurement": "viability at 0.5 µM", "setting": "U-937 [6]", "result": 81.4, "unit": "%"}, {"measurement": "viability at 1.1 µM", "setting": "K562 [7]", "result": 50, "unit": "%"}, {"measurement": "viability at 0.37 µM", "setting": "U-937 [8]", "result": 58.7, "unit": "%"}, {"measurement": "Activity", "setting": "K562 [9]", "result": "Dose-dependent effect"}, {"measurement": "IC50", "setting": "K562 [10]", "result": 600, "unit": "nM"}, {"measurement": "viability at 0.37 µM", "setting": "K562 [11]", "result": 86.2, "unit": "%"}, {"measurement": "Activity", "setting": "U-937 [12]", "result": 14.5, "unit": "%"}, {"measurement": "Activity", "setting": "U-937 [13]", "result": 1.04, "unit": "%"}, {"measurement": "IC50", "setting": "MCF7", "result": 1900, "unit": "nM"}, {"measurement": "viability at 1 µM", "setting": "U-937 [14]", "result": 73.1, "unit": "%"}, {"measurement": "IC50", "setting": "U-937 [15]", "result": 360, "unit": "nM"}, {"measurement": "Activity", "setting": "U-937 [16]", "result": 25.8, "unit": "%"}, {"measurement": "Activity", "setting": "U-937 [17]", "result": 10.4, "unit": "%"}, {"measurement": "viability at 1.1 µM", "setting": "U-937 [18]", "result": 17.4, "unit": "%"}, {"measurement": "Activity", "setting": "U-937 [19]", "result": 6.11, "unit": "%"}, {"measurement": "viability at 3.3 µM", "setting": "K562 [20]", "result": 31, "unit": "%"}, {"measurement": "Activity", "setting": "U-937 [21]", "result": 1.26, "unit": "%"}, {"measurement": "viability at 3.3 µM", "setting": "K562 [22]", "result": 3.5, "unit": "%"}, {"measurement": "Activity", "setting": "U-937 [23]", "result": 8.32, "unit": "%"}, {"measurement": "Activity", "setting": "U-937 [24]", "result": "Tde"}, {"measurement": "Activity", "setting": "K562 [25]", "result": "Tde"}, {"measurement": "Activity", "setting": "U-937 [26]", "result": 7.63, "unit": "%"}, {"measurement": "viability at 3.3 µM", "setting": "U-937 [27]", "result": 0, "unit": "%"}, {"measurement": "viability at 2 µM", "setting": "U-937 [28]", "result": 52.7, "unit": "%"}, {"measurement": "viability at 1.1 µM", "setting": "K562 [29]", "result": 17.3, "unit": "%"}, {"measurement": "viability at 2 µM", "setting": "U-937 [30]", "result": 77.9, "unit": "%"}, {"measurement": "Activity", "setting": "U-937 [31]", "result": 4.09, "unit": "%"}, {"measurement": "viability at 1.1 µM", "setting": "U-937 [32]", "result": 3.3, "unit": "%"}, {"measurement": "Activity", "setting": "U-937 [33]", "result": 16, "unit": "%"}]}]}
